The results in this text go back to patent US9115072B2, “Compounds and method for reducing uric acid” (WELLSTAT THERAPEUTICS CORPORATION, priority 2008, dated 2015).

Counter-ions that a name gives are not always drawn.

The test system of assay [1] is healthy, normal men and women. Put plainly: Single oral dose clinical study, blood/plasma uric acid levels (Examples 1 and 4). The format is in vivo, human. The following applies: for Mean Percent Change (blood uric acid levels): before vs 24 hours after administration. Here is the method:
Five groups of 4 healthy, normal men and women received a single, oral administration of escalating doses of Compound BI (n=3 per group) or placebo capsules (n=1 per group) in a randomized, double blind clinical study. Blood uric acid levels were measured before and 24 hours after administration of study treatment. Compound BI was administered at doses of 50, 100, 200, 400 or 800 mg.
Plasma samples taken immediately prior to and at 1, 2, 4, 6, 12 and 24 hours after a single, oral administration of a test compound to 4 healthy, normal men and women in each of three groups as described above in Example 1 were analyzed to determine uric acid levels. Compound BI (n=3 per group) or placebo capsules (n=1 per group) were administered in a randomized, double blind clinical study. Plasma samples taken at the time points indicated from patients receiving Compound BI at doses of 200, 400 or 800 mg were stored at −70° C. and analyzed at a later time.

Assay [2] concerns healthy normal men and women. Put plainly: Seven-day once/twice daily dosing clinical study, blood/plasma uric acid levels (Examples 2 and 5). The format is in vivo, human. The following applies: for Percent Change in Uric Acid Levels Following a Single Administration of Study Treatment, Mean Percent Change: 24 hours after the first administration; for Percent Change in Uric Acid Levels Following a Daily Administration of Study Treatment for Seven Days, Mean Percent Change: after 7 consecutive days; for Effect on blood uric acid levels (in words): 400 mg twice per day or 800 mg once per day groups. Here is the method:
Two groups of 8 healthy normal men and women received oral administration of either 800 mg Compound BI once per day (n=6 per group) or 400 mg Compound BI twice per day (n=6 per group) or placebo capsules (n=2 per group) in a randomized, double blind clinical study. Blood uric acid levels were measured before administration of study treatment, 24 hours after the first administration of study treatment and after 7 consecutive days of study treatment administration.
Sixteen men and women participating in a clinical study were randomly assigned to receive either placebo capsules (n=4 subjects), 400 mg Compound BI twice per day (n=6 subjects), or 800 mg Compound BI once per day (n=6 subjects) for seven consecutive days. Plasma samples taken prior to (Time 0) and at 1, 2, 4, 9, 11, 13, 18 and 24 hours after the initial administration of the test article on Day 7 of the study were stored at −70° C. and later analyzed for uric acid. (This Example 5 is a continuation of the experiment described in Example 2.)

Assay [3] deals with T1, human URAT1 (Homo sapiens, UniProt Q96S37).
T1 construct: The full-length hURAT1 cDNA was obtained from the vector pCMV6-XL5 and subcloned into the expression vector pCMV6-Neo
T1 sequence (Q96S37 1-553): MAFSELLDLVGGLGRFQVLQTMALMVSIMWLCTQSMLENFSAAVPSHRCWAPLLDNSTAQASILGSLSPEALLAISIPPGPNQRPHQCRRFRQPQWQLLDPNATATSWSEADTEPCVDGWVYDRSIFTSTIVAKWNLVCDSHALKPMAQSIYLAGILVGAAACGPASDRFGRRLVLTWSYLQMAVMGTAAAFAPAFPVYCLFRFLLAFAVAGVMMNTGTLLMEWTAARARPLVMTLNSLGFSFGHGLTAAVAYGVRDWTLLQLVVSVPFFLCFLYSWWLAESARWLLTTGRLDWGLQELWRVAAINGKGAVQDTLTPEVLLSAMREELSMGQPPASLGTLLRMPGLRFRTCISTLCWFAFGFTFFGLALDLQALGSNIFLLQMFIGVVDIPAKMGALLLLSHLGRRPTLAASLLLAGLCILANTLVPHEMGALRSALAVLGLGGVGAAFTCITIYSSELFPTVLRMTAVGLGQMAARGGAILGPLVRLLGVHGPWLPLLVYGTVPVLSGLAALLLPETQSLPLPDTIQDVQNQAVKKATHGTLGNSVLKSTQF
Description: URAT1 inhibition assay, [8-14C] urate uptake in hURAT1-HEK cells. In kind it is cell-based. The following applies: 50 μM [8-14C] urate; for inhibition at 10 µM: drug concentration typically 10 micromolar, read-out: % of Inhibition (uric acid uptake). Here is the method: A suitable assay involves transfection of cells (e.g. human embryonic kidney cells; “HEK”) with a vector encoding human URAT1, followed by determination of the ability of transfected cells to take up radiolabeled uric acid. The activity of compounds as URAT1 inhibitors is evaluated by their ability to block uric acid uptake by transfected cells.
Urate (50-60 mCi/mmol; American Radio Chemicals, Cat. No. ARC0513).
Plasmid vector pCMV6-XL5 containing hURAT1 cDNA (Cat. No. SC125624) and the expression vector pCMV6-Neo (Cat. No. pCMVNEO) were obtained from OriGene Technologies, Inc. The full-length hURAT1 cDNA was obtained from the vector pCMV6-XL5 and subcloned into the expression vector pCMV6-Neo to create the hURAT1 expression plasmid pCMV6-hURAT1. The sequences were verified by automatic DNA sequencing.
For transfection experiments, cells were plated on 60 mm dishes in 1 ml media per dish. […] Stable transfectants expressing hURAT1 (herein after referred as hURAT1-HEK cells) or cells having only the expression vector pCMV6-Neo (herein after referred as mock-HEK cells) were verified using reverse transcription polymerase chain reaction (RT-PCR) methods.
Before the uptake assay started, the culture medium was removed and the cells were incubated for 5 min in 0.6 ml of HBSS. After that HBSS was removed, the prepared reaction solutions were added into each well and incubated for 5 min at room temperature. Then the reaction solution was removed, cells were washed twice with 0.6 ml of cold HBSS and lysed with 0.2 ml of 0.1 M NaOH for 20 min. […] Test compounds were dissolved in DMSO and the same concentration of DMSO was added into the wells of mock-HEK cells and the hURAT1-HEK cells that didn't contain test compounds. For each test compound, the uptake assay was performed 2 times and carried out in triplicate. Urate uptake of the cells for each test condition was presented as the average percent inhibition in comparison to the DMSO control. The radioactivity values obtained for the wells that contained DMSO were taken as 100% uptake of the cells. The observed concentration-percent inhibition data were fitted to a sigmoidal concentration-effect model, where: IC50^Slope=[(100*Conc^Slope)/% Inhibition]−Conc^Slope
Additional drug concentrations were tested for determination of IC-50 values for some compounds (Table 6).

In assay [4] the test system is mice treated with the uricase inhibitor potassium oxonate. Put plainly: Uric acid excretion in urine of mice treated with the uricase inhibitor potassium oxonate. The format is in vivo, mouse. The following applies: for Urine Uric Acid: urine collected between 3 and 5 hours after drug; for Effect on uric acid in urine versus the Oxonate control group (in words): urine collected between 3 and 5 hours after drug administration. The source says:
The model to induce hyperuricemia involves the use of the uricase (urate oxidase) inhibitor potassium oxonate that causes a delay in the degradation of uric acid to allantoin. Humans have little or no uricase activity, so inhibition of this enzyme with potassium oxonate makes mouse uric acid processing more similar to that of humans. Male 11-week old C57/B16 mice (Harlan, Frederick, Md.) were used in the studies (8 per experimental group). Mice were receiving standard rodent chow that was removed one hour before administration of potassium oxonate. Mice were given an intraperitoneal injection (i.p.) of potassium oxonate (300 mg/kg) that was suspended in 0.5% hydroxypropylmethylcellulose (HPMC). […] Urine collection was performed at 1, 3 and 5 hours after drug treatments and uric acid was measured with a colorimetric assay (BioVision Research Products, Mountain View, Calif.).

[5] abbreviates: 100 mg/kg p.o. after oxonate 300 mg/kg i.p.

One may read the IC50 as the midpoint of a concentration-inhibition curve. Low values mean greater potency, high ones weaker potency. For orientation: inhibition means the share of the control response that was lost under treatment. In the case of `Cc1cccc(C)c1COc1cccc(C(=O)CCC(=O)O)c1` [Compound BI, 4-(3-(2,6-Dimethylbenzyloxy)phenyl)-4-oxobutyric acid], in assay [1] (single dose 200, 400 or 800 mg, FIG. 2), the “Effect on plasma uric acid levels over 24 hours (in words)” value was “significant, dose-dependent reductions”. The “Mean Percent Change (blood uric acid levels)” value was −8.8% in assay [1] (single oral dose 50 mg); −13.4% in assay [1] (single oral dose 100 mg); −18.9% in assay [1] (single oral dose 200 mg); −35.0% in assay [1] (single oral dose 400 mg); −32.7% in assay [1] (single oral dose 800 mg). In addition, the “Effect on blood uric acid levels (in words)” value in assay [1] (single oral dose 50, 100, 200, 400 or 800 mg, 24 hours) is on record as “significant, dose-dependent reduction”; in assay [2] (daily administration for 7 days), “significant reduction”; in assay [2] (single dose), “significant reduction”. Besides, the results for the “Percent Change in Uric Acid Levels Following a Single Administration of Study Treatment, Mean Percent Change” value in assay [2] (400 mg bid) and in assay [2] (800 mg qd) were −54.0% and −45.3%, respectively. In addition, the “Percent Change in Uric Acid Levels Following a Daily Administration of Study Treatment for Seven Days, Mean Percent Change” value in assay [2] (400 mg bid) was −56.7%; in assay [2] (800 mg qd) it was −53.2%. Moreover, the “Plasma uric acid levels at Time 0 on Day 7 compared to Time 0 on the first day and to placebo (in words)” value in assay [2] (400 mg twice per day or 800 mg once per day for seven days, FIG. 3) was “significantly reduced”. Besides, inhibition in assay [3] was half-maximal at 950 nM (IC50). Besides, the inhibition at 10 µM in assay [3] came out at 86.1%. In assay [4] (setting [5]), the “Urine Uric Acid” value is given as 293 mg/dL. Moreover, the “Effect on uric acid in urine versus the Oxonate control group (in words)” value in assay [4] is listed as “significant increase in excreted uric acid”.
`CCc1oc2ccccc2c1C(=O)c1cc(Br)c(O)c(Br)c1` [Benzbromarone]: the entries for the “Urine Uric Acid” value in assay [4] (30 mg/kg p.o. after oxonate 300 mg/kg i.p.) and in assay [4] (setting [5]) were 185 mg/dL and 173 mg/dL, respectively. Moreover, the “Effect on uric acid in urine versus the Oxonate control group (in words)” value in assay [4] is reported as “induced an increase in uric acid concentration in urine, though to lesser degree than Compound BI”.
Turning to `CN(CCOc1ccc(C(=O)CCC(=O)O)cc1)Cc1ccccc1F` [AM, 4-(4-(2-((2-Fluorobenzyl)(methyl)amino)ethoxy)phenyl)-4-oxobutanoic acid hydrochloride], in assay [3], the inhibition at 10 µM came out at 0%.
On to `Oc1ncnc2[nH]ncc12` [Allopurinol], for which the “Urine Uric Acid” value in assay [4] (20 mg/kg p.o. after oxonate 300 mg/kg i.p.) came out at 79 mg/dL. Besides, in assay [4], the “Effect on uric acid in urine versus the Oxonate control group (in words)” value is recorded as “reduced the concentration of uric acid in urine”.
Consider `COc1ccccc1COc1ccc(C(=O)CCC(=O)O)cc1` [AB, 4-(4-(2-Methoxybenzyloxy)phenyl)-4-oxobutanoic acid], for which the inhibition at 10 µM in assay [3] is 3.7%.
